“Also recorded” adds a separate entry of the source. Where a SMILES comes first, the peptide text is derived from it. Bridges are numbered along the chain shown (N, C = ends). [ ]: non-standard residue; d: D form. Tic = O=C(O)[C@@H]1Cc2ccccc2CN1; Pen = CC(C)(S)[C@H](N)C(=O)O; Mpa = O=C(O)CCS
What was measured:
αv β3 receptor = target: T1, αv β3 receptor (Homo sapiens, UniProt P05106+P06756); test: αvβ3 competitive ELISA; type: binding; conditions: IC50 in αvβ3 ELISA / JY cells versus αvβ5 and α5β1 ELISAs; in words
T1 construct: The αv β3 receptor was purified from octylglucopyranoside-extracted human placenta; from tissue; host or cells: human placenta
Protocol: Peptide binding to purified human αv β5 and αv β3, which are VnR's, and to α5 β1 which is a FnR, was determined using competitive ELISA assays as described below.
Peptide binding to purified αv β3 receptor was determined by using a competitive ELISA, in which αv β3 receptor was immobilized and the binding of solubilized VN, in the presence of various concentrations of peptide analogue, was detected using a monoclonal mouse IgG anti-VN antibody and a labelled anti-mouse IgG conjugate.
96 well microtiter plates were coated overnight at RT with 100 μl/well of αv β3 receptor (0.5 μg/ml in 1X TBS, 4 mM octylglucoside, 1 mM CaCl2). The wells were blocked with 200 μl/well of 1% BSA in 1X TBS, 1 mM CaCl2 for at least 30 min. The plates were washed 2× with 1X TBS, 1 mM CaCl2. 50 μl peptide in 1X TBS, 1 mM CaCl2, 0.05% TWEEN 20 (polyoxyethylenesorbitan monolaurate) was added in 10-fold serial dilutions. 50 μl of Vn in the same buffer then was added to each well.
The plates were incubated for 3 hr at RT, then washed 3× with 1X TBS, 0.05% TWEEN 20 (polyoxyethylenesorbitan monolaurate). 100 μl of 8E6 (Telios) diluted to 1:6000 in 1X TBS, 0.05% TWEEN 20 (polyoxyethylenesorbitan monolaurate) was added to the wells and the plates were incubated for 1 hr at RT. Plates were washed 3× with 1X TBS, 0.05% TWEEN 20 (polyoxyethylenesorbitan monolaurate). Affinity purified goat anti-mouse IgG conjugated to horseradish peroxidase (100μl/well; BioRad; Hercules Calif.) was added to each well and incubated for 1 hr at RT. Plates were washed 3× with 1X TBS, 0.05% TWEEN 20 (polyoxyethylenesorbitan monolaurate). 100 μl/well of substrate mixture (10 mg O-phenylenediamine in 25 ml 0.1M citrate-phosphate buffer, pH 5.0, 6 μl 30% H2 O2) was added to the plates and allowed to develop. The development process was stopped by adding 50 μl to 4N H2 SO4 to each well. The plates were read at 490 nm and the data analyzed by four parameter fit.

[1] = tested on: osteoclasts; αv β3 integrin receptor; test: Series of assays of Example II (summary of potency and selectivity, FIG. 2); conditions: in words
αv β3 integrin receptor = conditions: Choi et al. 1994; cited from earlier work
[2] = in vivo; Fisher et al.; cited from earlier work
osteoclasts = conditions: in vitro; Sato et al., EP 437,367; cited from earlier work
[3] = Half-life of peptide in serum; type: in vivo; conditions: in words
Description: Increased stability of a disulfide bonded peptide of the invention also can be conferred by incorporating a hydrophobic amino acid residue such as phenylalanine at position X1 or X8 or both X1 and X8 in an RGDNTic (SEQ ID NO: 31) or RGDDV (SEQ ID NO: 1) pharmacophore as disclosed herein. The presence of such a residue can stabilize the disulfide bond against enzymatic degradation (see Bauer et al., Life Sciences 31:1133-1140 (1982)). […] In addition, the half-life of a peptide in a subject can be determined, for example, by high performance liquid chromatography (HPLC) of serum samples collected from the subject at various times following administration of the peptide. One skilled in the art would know how to select appropriate elution buffers for HPLC based on the physico-chemical properties of a particular peptide.

[4] = Parathyroid hormone-induced hypercalcemia in mice; type: in vivo; conditions: parathyroidectomized Swiss-Webster mice, 4 hr peptide infusion, 0.2 mg PTH/kg i.v.; in words
Description: Parathyroid hormone (PTH) activates osteoclasts, which are involved in bone resorption. Associated with the increased osteoclast activity is an increase in serum calcium. The PTH-induced hypercalcemia assay measures the level of serum calcium, which is an indication of bone resorption in a subject (Fischer et al., Endocrinology 132:1411-1413 (1993), which is incorporated herein by reference).
Swiss-Webster mice, which had been parathyroidectomized two weeks prior to beginning the assay, were obtained from Taconic Lab Animals and Services (Germantown N.Y.). Femoral vein catheters (PE-50 fused with PE10 polyethylene tubing; Becton Dickinson; Parsippany, N.J.) were installed in the mice, flushed and locked with heparinized saline (1:10), sutured to adjacent muscle and internalized within the inguinal space of the incision before closing the incision with wound clips. […]
The experiment was initiated by feeding the mice a calcium-deficient diet overnight, then injecting the mice the following morning with a bolus of 0.2 mg PTH/kg (hPTH 1-34; Bachem; Torrance Calif.), intravenously. […] Various doses of a peptide or vehicle were infused into an animal for 4 hr, then ionized serum calcium again was measured. […] Serum calcium measurements were expressed as the difference between the value 30 min before the PTH pulse and 4 hr after peptide infusion was started. […]

CC[C@H](C)[C@@H]1NC(=O)[C@@H](NC(=O)CN)C(C)(C)SSC[C@@H](C(=O)N[C@@H](C)C(=O)O)NC(=O)[C@H](CC(C)C)NC(=O)[C@H](CC(=O)O)NC(=O)[C@H](CC(=O)O)NC(=O)CNC(=O)[C@H](CCCNC(=N)N)NC(=O)[C@H](C)NC1=O [compound 448] (H-G[Pen]IARGDDLCA-OH; disulfide 2-10)
receptor selectivity for αv β3 compared to αv β5 and α5 β1 (αv β3 receptor): particularly receptor selective

CC(C)[C@@H]1NC(=O)[C@H](CC(=O)O)NC(=O)[C@H](CC(=O)O)NC(=O)CNC(=O)[C@H](CCCNC(=N)N)NC(=O)[C@H](C)NC(=O)[C@H](C)NC(=O)[C@@H](NC(=O)CN)C(C)(C)SSC[C@@H](C(=O)N[C@@H](C)C(N)=O)NC1=O [compound 814] (H-G[Pen]AARGDDVCA-NH2; disulfide 2-10)
receptor selectivity for αv β3 compared to αv β5 and α5 β1 (αv β3 receptor): receptor selective for αv β3; also recorded: particularly receptor selective

CC(=O)N[C@H]1CSSC[C@@H](C(N)=O)NC(=O)[C@@H]2Cc3ccccc3CN2C(=O)[C@H](CO)NC(=O)[C@H](CC(=O)O)NC(=O)CNC(=O)[C@H](CCCNC(=N)N)NC1=O [compound 812, Ac-CRGDS(Tic)C--NH2] (Ac-CRGDS[Tic]C-NH2; disulfide 1-7)
potency (active at a relatively low concentration) [1]: particularly potent
activity (FIG. 2) ([1]; minimally essential elements): demonstrate activity

G(Pen)GRGDSPCA
inhibition of neointimal hyperplasia (αv β3 integrin receptor): can inhibit neointimal hyperplasia

CC(=O)N[C@H]1CSSC(C)(C)[C@@H](C(N)=O)NC(=O)[C@@H]2CCCN2C(=O)[C@H](CC(N)=O)NC(=O)[C@H](CC(=O)O)NC(=O)CNC(=O)[C@H](CCCNC(=N)N)NC1=O [compound 228] (Ac-CRGDNP[Pen]-NH2; disulfide 1-7)
receptor selectivity for αv β3 compared to αv β5 and α5 β1 (αv β3 receptor): particularly receptor selective

Echistatin
inhibition of bone resorption [2]: inhibits bone resorption
inhibition of bone resorption (osteoclasts): inhibits bone resorption in vitro

CC(=O)N[C@@H]1C(=O)N[C@@H](Cc2ccccc2)C(=O)N[C@@H](C)C(=O)N[C@@H](CCCNC(=N)N)C(=O)NCC(=O)N[C@@H](CC(=O)O)C(=O)N[C@@H](CC(N)=O)C(=O)N2CCC[C@H]2C(=O)N[C@H](C(N)=O)CSSC1(C)C [peptide 214] (Ac-[Pen]FARGDNPC-NH2; disulfide 1-9)
potency (active at a relatively low concentration) [1]: particularly potent

CC(=O)N[C@@H](Cc1ccccc1)C(=O)N[C@H]1CSSC[C@@H](C(N)=O)NC(=O)[C@H](Cc2ccccc2)NC(=O)[C@H]([C@@H](C)O)NC(=O)[C@H](CC(=O)O)NC(=O)CNC(=O)[C@H](CCCNC(=N)N)NC1=O [peptide 220] (Ac-FCRGDTFC-NH2; disulfide 2-8)
half-life in serum [3]: relatively long half-life in serum

CC(C)[C@@H]1NC(=O)[C@H](CC(=O)O)NC(=O)[C@H](CC(=O)O)NC(=O)CNC(=O)[C@H](CCCNC(=N)N)NC(=O)CCSSC[C@@H](C(N)=O)NC1=O [compound 191] ([Mpa]RGDDVC-NH2; disulfide 1-7)
PTH-induced rise in serum ionized calcium [4]: decreased the PTH-induced rise in serum ionized calcium in a dose responsive manner

From patent US5773412A, “Use of peptides for altering αV β3 -mediated binding” (priority 1995, dated 1998)
